Results: BindingDB's records for doi:10.1021/jm991008q (1999)

Legend:
[1] = target: Ornithine carbamoyltransferase (Streptococcus/Enterococcus faecalis); experiment: Binding affinity against ornithine transcarbamoylase (OTC) produced by Streptococcus faecalis The buffer taken for this study is 50 mM maleate, 0.5 mM EDTA at pH 6.0.
[2] = target: Ornithine carbamoyltransferase (Streptococcus/Enterococcus faecalis); experiment: Binding affinity against ornithine transcarbamoylase (OTC) produced by Streptococcus faecalis The buffer taken for this study is 50 mM Tris.HCl, 0.5 mM EDTA at pH 7.0.
[3] = target: Ornithine carbamoyltransferase (Streptococcus/Enterococcus faecalis); experiment: Binding affinity against ornithine transcarbamoylase (OTC) produced by Streptococcus faecalis The buffer taken for this study is 50 mM Tris.HCl, 0.5 mM EDTA at pH 8.0.

Ki [1] [µM]	Ki [2] [µM]	Ki [3] [µM]	Structure (SMILES)
660	750	1900	N[C@@H](CCCNCP(=O)(O)CP(=O)(O)O)C(=O)O [2-Amino-5-[(hydroxy-phosphonomethyl-phosphinoylmethyl)-amino]-pentanoic acid]
> 20000	2300	3200	N[C@@H](CCNCP(=O)(O)CP(=O)(O)O)C(=O)O [(2S)-2-ammonio-4-[({[(hydroxyphosphinato)methyl]phosphinato}methyl)ammonio]butanoate]

Structure (SMILES)	Ki [1] [µM]	Ki [2] [µM]	Ki [3] [µM]
CC(C)(C)OC(=O)N[C@@H](CCCNCP(=O)(O)CP(=O)(O)O)C(=O)O [(2S)-2-[(tert-butoxycarbonyl)amino]-5-[({[(hydroxyphosphinato)methyl]phosphinato}methyl)ammonio]pentanoate]	> 20000	1000	2000
